Square brackets hold non-standard residues; d marks the D form. Ends that are not written are not given here. Tle = CC(C)(C)[C@H](N)C(=O)O
Experiments:
[1] = system: monoclonal antibody (DAEFRH-peptide-specific); assay: Inhibition assay (ELISA): mimotope peptides compete with plate-bound original epitope DAEFRH for recognition by the monoclonal antibody; format: binding, Mice; design: key to inhibition (s/m/—): s: strong inhibition; m: moderate inhibition; —: -: no inhibition; conditions: for inhibition of binding of the monoclonal antibody to the original epitope: text to FIGS. 2-9; for Inhibitory capacity of mimotopes: summary Tables 1 and 2 (Examples 2, 3); for inhibition (s/m/—): peptide lists of Example 4
From the text: Mice are vaccinated with the 6mer peptide DAEFRH (natural N-terminal Aβ42 sequence) linked to the protein bovine serum albumin BSA (to make use of the hapten-carrier-effect), emulsified in CFA (first injection) and IFA (booster injections). DAEFRH-peptide-specific, antibody-producing hybridomas are detected by ELISA (DAEFRH-peptide-coated ELISA plates).
FIGS. 2 and 3 describe the results of inhibition assays performed with mimotope peptides included in and obtained from the 5 libraries (as described in WO 2004/062556). The mimotope peptides compete with the original epitope for recognition by the monoclonal antibody. Original epitope and mimotope peptides contain an additional C at the C-terminus for coupling to a protein carrier (if desired).
(§1) After blocking with PBS/BSA 1% (200 μl/well, 12 h, 4° C.), the plates are washed 3× times with PBS/Tween. Then, biotinylated monoclonal antibody (1:2000, 50 μl/well) and peptides (50 μl/well) at 50, 5, 0.5, 0.05, 0.005, and 0.0005 μg/ml are added for 20 min. at 37° C. The plates are washed 3× times with PBS/Tween and are incubated with horseradish peroxidase (HRP)-labeled streptavidin (100 μl/well, 30 min, RT). The plates are washed 5× times with PBS/Tween and are incubated with ABTS+H2O2(0.1% w/v, 10 to 45 min) and the reaction is stopped with citric acid followed by photometric evaluation (wavelength 405 nm).
as §1, with “different concentrations” for “50, 5, 0.5, 0.05, 0.005, and 0.0005 μg/ml”, “ABTS+H2O2 (0.1%” for “ABTS+H2O2(0.1%”
as §1, with “different concentrations” for “50, 5, 0.5, 0.05, 0.005, and 0.0005 μg/ml”

[2] = system: monoclonal antibody MV-001; assay: In vitro binding assay (ELISA), BSA-coupled peptides, parental antibody MV-001; design: species or system C57/B16 mice; conditions: Table 1C; peptide-BSA on plate, compared to original epitope
Experimental: Peptides derived from Phage Display as well as variants thereof were coupled to BSA and bound to ELISA plates (1 μM; as indicated in the respective figures) and subsequently incubated with the monoclonal antibody that was used for the screening procedure to analyse binding capacity of identified peptides.
Legend to Table 1C: the binding capacity is coded by the following binding code: 1:X describes the dilution factor of the parental AB

[3] = competition ELISA, plate-bound DAEFRH-C-BSA

Compound	inhibition of binding of the monoclonal antibody to the original epitope [1, 3]	Binding Capacity [2]	other results
CC[C@H](C)[C@H](NC(=O)[C@H](CCCNC(=N)N)NC(=O)[C@H](CC(C)C)NC(=O)[C@H](CCC(=O)O)NC(=O)[C@H](CCCNC(=N)N)NC(=O)[C@@H](N)CC(=O)O)C(=O)N[C@@H](CS)C(=O)O [Peptide 1235, DRELRI]	block epitope recognition		Inhibitory capacity of mimotopes [1]: strong
CC[C@H](C)[C@H](NC(=O)[C@H](CCCCN)NC(=O)[C@H](CC(C)C)NC(=O)[C@H](CCC(=O)O)NC(=O)[C@H](CCCCN)NC(=O)[C@@H](N)CC(=O)O)C(=O)N[C@@H](CS)C(=O)O [Peptide 1236, DKELKI]	block epitope recognition		Inhibitory capacity of mimotopes [1]: weak
CC[C@H](C)[C@H](NC(=O)[C@H](CCCCN)NC(=O)[C@H](CC(C)C)NC(=O)[C@H](CCC(=O)O)NC(=O)[C@H](CCCNC(=N)N)NC(=O)[C@@H](N)CC(=O)O)C(=O)N[C@@H](CS)C(=O)O [Peptide 1237, DRELKI]	block epitope recognition		Inhibitory capacity of mimotopes [1]: weak
C[C@H](NC(=O)[C@H](CC(=O)O)NC(=O)[C@H](CCCNC(=N)N)NC(=O)[C@H](Cc1ccccc1)NC(=O)[C@H](CCC(=O)O)NC(=O)[C@H](Cc1c[nH]c2ccccc12)NC(=O)[C@@H](N)CC(=O)O)C(=O)N[C@@H](CS)C(=O)O [Peptide 1241, DWEFRDA]	block epitope recognition		Inhibitory capacity of mimotopes [1]: strong
CC[C@H](C)[C@H](NC(=O)[C@H](CCCNC(=N)N)NC(=O)[C@H](CC(C)C)NC(=O)[C@H](CCC(=O)O)NC(=O)[C@H](CCCCN)NC(=O)[C@@H](N)CC(=O)O)C(=O)N[C@@H](CS)C(=O)O [Peptide 3001, DKELRI]	block epitope recognition		Inhibitory capacity of mimotopes [1]: strong
CC[C@H](C)[C@H](NC(=O)[C@H](CCCNC(=N)N)NC(=O)[C@H](CC(C)C)NC(=O)[C@H](CCC(=O)O)NC(=O)[C@H](Cc1c[nH]c2ccccc12)NC(=O)[C@@H](N)CC(=O)O)C(=O)N[C@@H](CS)C(=O)O [Peptide 3002, DWELRI]	block epitope recognition		Inhibitory capacity of mimotopes [1]: intermediate
N=C(N)NCCC[C@H](NC(=O)[C@H](Cc1ccccc1)NC(=O)[C@H](CCC(=O)O)NC(=O)[C@H](Cc1ccccc1)NC(=O)[C@@H](N)CO)C(=O)NCC(=O)N[C@@H](CS)C(=O)O [Peptide 3009, SFEFRG]			Inhibitory capacity of mimotopes [1]: weak
C[C@@H](O)[C@H](NC(=O)[C@H](CCCNC(=N)N)NC(=O)[C@H](Cc1ccccc1)NC(=O)[C@H](CCC(=O)O)NC(=O)[C@H](Cc1c[nH]c2ccccc12)NC(=O)[C@@H](N)CO)C(=O)N[C@@H](CS)C(=O)O [Peptide 4002, SWEFRT]	block epitope recognition		IC50 (inhibition of monoclonal antibody recognition of DAEFRH) ([1]; competition ELISA, plate-bound DAEFRH-C-BSA, biotinylated mAb 1:2000): less than 0.4 μg/ml; Inhibitory capacity of mimotopes [1]: strong
AANYFPRC [p4706]		2 (medium binding :4000-20000)	
AEFMHSVC [p4739]		2 (medium binding :4000-20000)	
AEFSHWHC [p4737]		2 (medium binding :4000-20000)	
APIQFRHC [p4750]		3 (strong binding :>20000)	
APMYFPHC [p4717]		2 (medium binding :4000-20000)	
ATFRHSPC [p4716]		2 (medium binding :4000-20000)	
ATFRHSTC [p4735]		2 (medium binding :4000-20000)	
ATPLFRHC [p4723]		3 (strong binding :>20000)	
ATYAYWN [Peptide 4038]	not inhibitory		inhibition (s/m/—) [1]: —
AYFPHTSC [p4751]		2 (medium binding :4000-20000)	
DAEFRH (DAEFRHC) [Peptide 1737, reference compound]	can successfully compete		
DAEFRWP [Peptide 4011]	strongly block epitope recognition		inhibition (s/m/—) [1]: s
DIGWRG (DIGWRGC) [Peptide 3011]	not inhibitory		Inhibitory capacity of mimotopes [1]: none

Compound	inhibition of binding of the monoclonal antibody to the original epitope [1, 3]	Binding Capacity [2]	other results
DISFRG (DISFRGC) [Peptide 3010]	not inhibitory		Inhibitory capacity of mimotopes [1]: none
DKE(tBuGly)R (DKE[Tle]R) [Peptide 4061]	not inhibitory		inhibition (s/m/—) [1]: —
DNEFRSP [Peptide 4012]	moderately inhibit		inhibition (s/m/—) [1]: s
DTYFPRSC [p4703]		2 (medium binding :4000-20000)	
EDWFFWHC [p4709]		1 (weak binding :<4000)	
EFLRHTLC [p4722]		3 (strong binding :>20000)	
GAEFRFT [Peptide 4014]	moderately inhibit		inhibition (s/m/—) [1]: m
GEMRHQPC [p4702]		3 (strong binding :>20000)	
GSEFRDY [Peptide 4013]	moderately inhibit		inhibition (s/m/—) [1]: m
HEPLFSHC [p4719]		1 (weak binding :<4000)	
IGFRHDSC [p4742]		2 (medium binding :4000-20000)	
KKELRI (KKELRIC) [Peptide 1234]	hardly inhibitory		Inhibitory capacity of mimotopes [1]: none
LHIPFRHC [p4726]		3 (strong binding :>20000)	
LQFKHSTC [p4734]		2 (medium binding :4000-20000)	
MLPFRHGC [p4731]		2 (medium binding :4000-20000)	
NELFKHFC [p4727]		2 (medium binding :4000-20000)	
NELRHSTC [p4701]		3 (strong binding :>20000)	
NSSELRHC [p4752]		3 (strong binding :>20000)	
QELKRYYC [p4724]		1 (weak binding :<4000)	
QLFKHSPC [p4747]		3 (strong binding :>20000)	
QPNLFYHC [p4713]		1 (weak binding :<4000)	

Compound	inhibition of binding of the monoclonal antibody to the original epitope [1, 3]	Binding Capacity [2]	other results
QVMRHHAC [p4711]		2 (medium binding :4000-20000)	
SAEFRAT [Peptide 4016]	strongly block epitope recognition		inhibition (s/m/—) [1]: s
SAEFRTQ [Peptide 4015]	strongly block epitope recognition		inhibition (s/m/—) [1]: s
SAGSFRHC [p4710]		3 (strong binding :>20000)	
SAMRHSLC [p4732]		2 (medium binding :4000-20000)	
SEFSHSSC [p4712]		3 (strong binding :>20000)	
SELRHSTC [p4744]		3 (strong binding :>20000)	
SLMRHSSC [p4721]		2 (medium binding :4000-20000)	
SNFRHSVC [p4749]		3 (strong binding :>20000)	
SNSEFRRC [p4743]		3 (strong binding :>20000)	
SQSYFKHC [p4755]		3 (strong binding :>20000)	
SQYFPRPC [p4729]		2 (medium binding :4000-20000)	
SSSFFPRC [p4708]		2 (medium binding :4000-20000)	
TGLMFKHC [p4736]		2 (medium binding :4000-20000)	
THMEFRRC [p4745]		3 (strong binding :>20000)	
TPLMFWHC [p4733]		1 (weak binding :<4000)	
TSTEMWHC [p4754]		1 (weak binding :<4000)	
TYFSHSLC [p4718]		2 (medium binding :4000-20000)	
VELRHSRC [p4704]		2 (medium binding :4000-20000)	
YSMRHDAC [p4705]		2 (medium binding :4000-20000)	

Reference: patent publication US20130287807A1, “COMPOUNDS FOR TREATING SYMPTOMS ASSOCIATED WITH PARKINSON'S DISEASE” (priority 2008, published 2013)
